Measurements published in paper PMC5612656, “In vitro and in vivo effects of 2,4 diaminoquinazoline inhibitors of the decapping scavenger enzyme DcpS: Context-specific modulation of SMN transcript levels” (PLoS ONE, 2017).

Test system: spinal cord transcriptome
Experiment: RNA-Seq of spinal cord tissue from 2B/- and 2B/+ mice
Format: in vivo, mouse
Details: 2B-Veh vs 2B-RG3039

## Nc1nc(N)c2c(OCC3CCN(Cc4c(Cl)cccc4Cl)CC3)cccc2n1 [RG3039]
  log2(fold-change) Slc16a3: -0.7903
  log2(fold-change) Slc16a9: -0.6931
  log2(fold-change) Slc24a4: -0.7011
  log2(fold-change) Slc25a34: -1.809
  log2(fold-change) Slc38a5: 1.057
  log2(fold-change) Slc43a2: -0.4622
  log2(fold-change) Smim3: -1.398
  log2(fold-change) Sox7: 0.9813
  log2(fold-change) Sspo: -0.7538
  log2(fold-change) Steap3: 0.5769
  log2(fold-change) Sult1a1: -1.637
  log2(fold-change) T2: -0.674
  log2(fold-change) Thbd: 0.6475
  log2(fold-change) Tjap1: -0.5932
  log2(fold-change) Tmem52: -2.209
  log2(fold-change) Tmem82: -2.075
  log2(fold-change) Tnc: 1.175
  log2(fold-change) Tnfrsf11b: 0.7466
  log2(fold-change) Tnfsf10: 1.316
  log2(fold-change) Top2a: 0.5734
  log2(fold-change) Trim17: -0.4978
  log2(fold-change) Trim63: -1.544
  log2(fold-change) Txnip: -1.514
  log2(fold-change) Ube2c: 0.4464
  log2(fold-change) Uhrf1: 0.8234
  log2(fold-change) Vegfc: 0.6909
  log2(fold-change) Wfdc18: -1.041
  log2(fold-change) Wnt7a: 1.48
  log2(fold-change) Zbtb16: -1.136
  log2(fold-change) Zfand4: -0.6603
Gene 1110032A03Rik
  log2(fold-change): -0.2821
Gene Acsbg1
  log2(fold-change): -0.2673
Gene Adam15
  log2(fold-change): -0.3484
Gene Adi1
  log2(fold-change): -0.4121
Gene Adra1b
  log2(fold-change): 0.2729
Gene Aff1
  log2(fold-change): -0.2665
Gene Ak3
  log2(fold-change): -0.3763
Gene Aldh1l1
  log2(fold-change): -0.3854
Gene Aldoc
  log2(fold-change): -0.3499
Gene Amz1
  log2(fold-change): 0.2752
Gene Ap5z1
  log2(fold-change): -0.356
Gene Aqp11
  log2(fold-change): -0.2575
Gene Arsk
  log2(fold-change): -0.2986
Gene B3gnt9
  log2(fold-change): -0.2654
Gene Bahd1
  log2(fold-change): 0.2771
Gene Boc
  log2(fold-change): -0.2865
Gene Calr
  log2(fold-change): 0.1683
Gene Ccdc41os1
  log2(fold-change): -0.2491
Gene Ccdc117
  log2(fold-change): 0.2458
Gene Ccnyl1
  log2(fold-change): 0.3378
Gene Cdc25a
  log2(fold-change): 0.2456
Gene Clmp
  log2(fold-change): 0.2336
Gene Cntfr
  log2(fold-change): -0.3422
Gene Col9a3
  log2(fold-change): 0.1971
Gene Cpt1c
  log2(fold-change): -0.278
Gene Crabp1
  log2(fold-change): 0.2782
Gene Cryz
  log2(fold-change): -0.1892
Gene Daam2
  log2(fold-change): -0.2024
Gene Darc
  log2(fold-change): 0.1786
Gene Decr1
  log2(fold-change): -0.3016
Gene Dnm2
  log2(fold-change): -0.2166
Gene Efnb3
  log2(fold-change): -0.3581
Gene Elmo2
  log2(fold-change): 0.364
Gene Eltd1
  log2(fold-change): -0.2627
Gene Fkbp10
  log2(fold-change): 0.3165
Gene Fmnl3
  log2(fold-change): 0.3298
Gene Foxo3
  log2(fold-change): -0.2832
Gene Gpt2
  log2(fold-change): -0.2642
Gene Gstt1
  log2(fold-change): -0.358
Gene Hapln2
  log2(fold-change): -0.2887
Gene Hmgcr
  log2(fold-change): 0.3374
Gene Hopx
  log2(fold-change): 0.2486
Gene Hsdl2
  log2(fold-change): -0.1941
Gene Itfg3
  log2(fold-change): -0.4076
Gene Ivd
  log2(fold-change): -0.3584
Gene Kctd3
  log2(fold-change): -0.3771
Gene Kctd15
  log2(fold-change): 0.2608
Gene Kpna2
  log2(fold-change): 0.269
Gene Lpcat1
  log2(fold-change): 0.2395
Gene Lrrc1
  log2(fold-change): -0.4303
Gene Lxn
  log2(fold-change): 0.285
Gene Maged2
  log2(fold-change): 0.2097
Gene Megf9
  log2(fold-change): -0.283
Gene Megf11
  log2(fold-change): 0.3115
Gene Mmp15
  log2(fold-change): 0.2397
Gene Msi1
  log2(fold-change): 0.3899
Gene Mterfd3
  log2(fold-change): -0.3526
Gene Ngef
  log2(fold-change): 0.3246
Gene Nid1
  log2(fold-change): 0.3048
Gene Npl
  log2(fold-change): 0.2963
Gene Nr2f1
  log2(fold-change): 0.3426
Gene Nrbp2
  log2(fold-change): -0.2827
Gene Nrep
  log2(fold-change): 0.3402
